According to ChEMBL document CHEMBL1138719, “Tocopherol long chain fatty alcohols decrease the production of TNF-alpha and NO radicals by activated microglial cells” (Bioorg Med Chem Lett, 2004):
Activity calls are given as the source filed them. The rule behind the calls is not given here.

Columns and labels:
Assay type in all cases: functional, cell-based
[1] = tested on: MMGT12; assay: inhibition of LPS-induced TNF-alpha production in mouse MMGT12 cells at 1e-5 M to 1e-7 M concentration; No effect
[2] = tested on: MMGT12; assay: inhibition of LPS-induced TNF-alpha production in mouse MMGT12 cells at 1e-5 M concentration; Slight inhibition
[3] = tested on: MMGT12; assay: inhibition of LPS-induced nitrite accumulation in mouse MMGT12 cells at 1e-6 M concentration; Slight inhibition
[4] = tested on: MMGT12; assay: inhibition of LPS-induced nitrite accumulation in mouse MMGT12 cells at 1e-5 M concentration; Strong inhibition inhibition
[5] = tested on: MMGT12; assay: inhibition of LPS-induced TNF-alpha production in mouse MMGT12 cells at 1e-6 M; Major inhibition
[6] = tested on: MMGT12; assay: inhibition of LPS-induced TNF-alpha production in mouse MMGT12 cells at 1e-5 M; Major inhibition

| SMILES | Activity [1] | Activity [2] | Activity [3] | Activity [4] | Activity [5] | Activity [6] |
| --- | --- | --- | --- | --- | --- | --- |
| Cc1c(C)c2c(c(C)c1O)CCC(C)(CCC[C@H](C)CCCC(C)CCCC(C)C)O2 (single isomer, unassigned) | inactive |  |  |  |  |  |
| Cc1c(C)c2c(c(C)c1O)CCC(C)(CCCCCCCCCCO)O2 (stereo unspecified) | inactive |  |  |  |  |  |
| Cc1c(C)c2c(c(C)c1O)CCC(C)(CCCCCCCCCCCCCCCCO)O2 (stereo unspecified) |  | Slight inhibition | Slight inhibition | Slight inhibition |  |  |
| Cc1c(C)c2c(c(C)c1O)CCC(C)(CCCCCCCCCCCCO)O2 (stereo unspecified) |  |  |  | Major inhibition | Major inhibition | Major inhibition |
| Cc1c(C)c2c(c(C)c1O)CCC(C)(CCCCCCCCCCCCCCO)O2 (stereo unspecified) |  |  |  | Major inhibition | Major inhibition | Major inhibition |
